Test results: publication PMC3933693, “Novel Inhibitors of Mitochondrial sn-Glycerol 3-phosphate Dehydrogenase” (PLoS ONE, 2014)

Columns and labels:
[1] = tested on: skeletal muscle mitochondria; assay: Mitochondrial membrane potential (ΔΨm, TMRM) powered by succinate; assay type: biochemical, rat
Experimental: Mitochondrial membrane potential (ΔΨm) was estimated fluorimetrically as described previously on the Varian fluorimeter, except the potentiometric dye TMRM was used in quench-mode in place of safranine O [34]. […] The effect of putative small-molecule inhibitors was normalized as the % change in fluorescence between vehicle treatment and complete depolarization by the uncoupler carbonyl cyanide-4-(trifluoromethoxy)phenylhydrazone (FCCP, 2 µM) added at the end of each run. When indicated, the K^+/H^+ exchanger nigericin (80 ng ⋅ ml^−1) was added to collapse the pH gradient across the mitochondrial inner membrane (ΔpH) and maximize ΔΨm.
The assay buffer for both H2O2 and ΔΨm measurements was 120 mM KCl, 5 mM HEPES, 1 mM EGTA, 0.3% (w/v) BSA without or with 250 nM free calcium at pH 7.0. All assays were performed with stirring at 37°C.
Structure/activity analysis was performed on 18 structural analogs of two structurally-related hits from the primary screen (iGP-1 and iGP-2). These 20 compounds were tested in duplicate at 0.08–80 µM (0.1% DMSO final) in microplate format for effects on site-specific H2O2 production as described above. Additionally, four microplate assays for ΔΨm were run in parallel to the H2O2 assays. These assays were as described under “Measurement of mitochondrial H2O2 production and membrane potential” except that each substrate condition was assayed in a separate microplate. […] Plates were incubated in the dark at room temperature for 30–40 min (H2O2) or 10–15 min (ΔΨm) after the addition of substrate, and endpoint fluorescence was measured on the Victor plate reader. Endpoints were chosen for the H2O2 assays to provide good signal-to-noise ratios and linear rates of change without the indicator dye limiting the reaction. Endpoints for the ΔΨm assays were determined in pilot experiments as the times for TMRM accumulation to reach a steady state. […] Endpoint fluorescence values were normalized as described in the previous section with wells containing FCCP serving as positive controls for the ΔΨm assays.

[2] = molecular target: T1, purified rabbit muscle cGPDH (Oryctolagus cuniculus, UniProt P08507); assay: cGPDH enzymatic activity (NADH oxidation in the presence of DHAP); assay type: biochemical; details: Fig. 5
T1 construct: Activity of purified rabbit muscle cGPDH was measured as described by the manufacturer; purchased; host or cells: rabbit muscle
T1 sequence (P08507 1-349): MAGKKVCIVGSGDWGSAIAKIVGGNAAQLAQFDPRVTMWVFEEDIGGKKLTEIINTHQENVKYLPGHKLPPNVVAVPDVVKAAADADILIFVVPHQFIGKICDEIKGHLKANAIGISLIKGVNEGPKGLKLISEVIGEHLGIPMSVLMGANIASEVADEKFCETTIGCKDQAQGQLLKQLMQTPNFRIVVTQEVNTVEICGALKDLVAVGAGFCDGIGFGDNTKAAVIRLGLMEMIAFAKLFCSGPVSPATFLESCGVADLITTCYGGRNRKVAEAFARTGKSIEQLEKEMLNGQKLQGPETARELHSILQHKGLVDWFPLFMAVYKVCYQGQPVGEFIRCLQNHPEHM
Experimental: The effects of small-molecule inhibitors on cGPDH and mGPDH enzymatic activity were tested according to established procedures. Activity of purified rabbit muscle cGPDH was measured as described by the manufacturer as the rate of oxidation of NADH in the presence of DHAP on the Varian fluorimeter (λex = 365 nm, λem = 450 nm). Activity of cGPDH in frozen-thawed synaptosomes was measured at 37°C in a BMG Labtech PHERAstar Plus microplate reader as the linear rate of change in NADH absorbance (λ = 340 nm) specific to the addition of 2.5 mM DHAP and insensitive to 4 µM rotenone. Rates were converted to nmol NADH using an extinction coefficient of 6.22 mM^−1 ⋅ cm^−1 and a calculated pathlength of 0.6 cm.

[3] = tested on: skeletal muscle mitochondria; assay: Mitochondrial respiration (Seahorse XF24) in plate-attached skeletal muscle mitochondria; assay type: biochemical, rat
Experimental: The effects of small-molecule inhibitors on respiration were tested in plate-attached skeletal muscle mitochondria using a Seahorse XF24 Analyzer according to published protocols. Briefly, mitochondria (2 or 4 µg protein) were attached to Seahorse assay plates by centrifugation in a mannitol and sucrose-based medium (Seahorse MAS buffer) containing 0.3% (w/v) BSA without or with 250 nM free calcium at pH 7.0. […] Compounds were added in these media just prior to loading the assay plate into the Seahorse instrument. Additions were made to set respiration in basal state 2 (substrate only), phosphorylating state 3 (5 mM ADP), non-phosphorylating state 4o (0.5 ug ⋅ mL^−1 oligomycin), and to reveal the non-mitochondrial rate (2 µM myxothiazol and 2.5 µM antimycin A). Each concentration of compound was tested in at least two wells on each plate. At least three biological replicates of each titration in each substrate condition were performed.

[4] = tested on: skeletal muscle mitochondria; assay: Mitochondrial membrane potential (ΔΨm, TMRM) powered by glutamate plus malate; assay type: biochemical, rat

O=C(O)CCC(=O)Nc1ccc(-c2nc3ccccc3[nH]2)cc1 [iGP-1]
effect on ΔΨm powered by 0.5 mM succinate ([1]; 80 µM, 0.5 mM succinate): significantly decreased
effect on ΔΨm powered by 5 mM succinate ([1]; 5 mM succinate): no effect
effect on the soluble form of GPDH (cGPDH) activity [2]: did not inhibit
effect on glycerol phosphate-dependent respiration ([3]; 25 and 80 µM, 16.7 mM glycerol phosphate, rotenone, 250 nM free calcium): significantly decreased
effect on respiration on other substrates ([3]; pyruvate and malate, glutamate and malate, succinate and rotenone): without altering
ΔΨm with Glu + Mal + Nig (% change at 80 μM) ([4]; 80 μM, 5 mM glutamate, 5 mM malate, with nigericin): 4%
ΔΨm with Glu + Mal (% change at 80 μM) ([4]; 80 μM, 5 mM glutamate, 5 mM malate, without nigericin): 15%
ΔΨm (% change from DMSO) ([4]; primary screen, ∼2.5 µM, average of duplicates, glutamate and malate): 0.154%
effect on ΔΨm powered by glutamate and malate ([4]; without or with nigericin): no effect
